This note sets out measurements from ChEMBL document CHEMBL4382251, “A Pair of Enantiomeric Bis- seco-abietane Diterpenoids from Cryptomeria fortunei” (J Nat Prod, 2018).

Molecules are shown by their SMILES.

Common to all, as to format: functional, cell-based
The subject of one experiment is SGC-7901. The experiment is described as follows: Antiproliferative activity against human SGC7901 cells after 72 hrs by sulforhodamine B assay. The note with it: SGC-7901, 72 h. In general terms: Sulforhodamine B stains cellular protein and so reports cell mass.
In another experiment the test system is A549. Put plainly: Antiproliferative activity against human A549 cells after 72 hrs by sulforhodamine B assay. The note with it: A549, 72 h.
The next experiment relates to HL-60. The experiment is described as follows: Antiproliferative activity against human HL60 cells after 72 hrs by CCK8 assay. To be noted: HL-60, 72 h.

In the case of `Cc1ccc2cc(C(C)C)c(O)cc2c1CC[C@@H]1OC(C)(C)OC1(C)C`, the figures for the IC50 in the experiment with SGC-7901, with A549 and in the experiment with HL-60 were 31.7 µM, 26.2 µM and 45.5 µM, respectively.
As to `CC(=O)Oc1cc2c(CC[C@@H](O)C(C)(C)O)c(C)ccc2cc1C(C)C`, the half-inhibitory concentration (IC50) in the experiment with SGC-7901 was 47.5 µM; in the experiment with A549, 48.6 µM; in the experiment with HL-60, 41.2 µM.
For the molecule `Cc1ccc(/C=C(\C(=O)O)C(C)C)c2c1CC[C@@H](C(C)(C)O)OC2=O`, the IC50 with SGC-7901, with A549 and with HL-60 was over 100 µM in each case.
Consider `CC(=O)Oc1cc2c(CC[C@H]3OC(C)(C)OC3(C)C)c(C)ccc2cc1C(C)C`, for which the IC50 with SGC-7901 stood at 36.7 µM; in the experiment on A549 it was 28.9 µM; in the experiment on HL-60, 17.2 µM.
For `CC(=O)Oc1cc2c(CC[C@H](O)C(C)(C)O)c(C)ccc2cc1C(C)C`, the half-maximal inhibitory concentration (IC50) turned out to be 45.8 µM in the experiment with SGC-7901, 50.5 µM in the experiment on A549 and 21.7 µM in the experiment on HL-60.
For the molecule `Cc1ccc(/C=C(\C(=O)O)C(C)C)c2c1CC[C@H](C(C)(C)O)OC2=O`, the IC50 in the experiment on SGC-7901, with A549 and with HL-60 was over 100 µM in each case.
Take `CC(=O)Oc1cc2c(CC[C@@H]3OC(C)(C)OC3(C)C)c(C)ccc2cc1C(C)C`: the IC50 with SGC-7901 stood at 88.9 µM; in the experiment on A549 it was 68.5 µM; with HL-60 it was 16 µM.
For `CC(=O)Oc1cc2c(CCC=C(C)C)c(C)ccc2cc1C(C)C`, the IC50 came out at 34.4 µM in the experiment on SGC-7901, 25.5 µM in the experiment on A549 and 20.8 µM in the experiment with HL-60.
With `Cc1ccc2cc(C(C)C)c(O)cc2c1CC[C@H]1OC(C)(C)OC1(C)C`, the IC50 in the experiment with SGC-7901 amounted to 33.1 µM; in the experiment on A549 it was 23.5 µM; with HL-60, 49.4 µM.
On to `CC(=O)Oc1cc2c(cc1C(C)C)C(=O)C=C1C(C)(C)CCCC12C` (single isomer, unassigned), for which the results for the IC50 in the experiment with SGC-7901, in the experiment with A549 and in the experiment with HL-60 were 22.9 µM, 26.9 µM and 25.7 µM, respectively.
As to `COc1cc2c(cc1C(C)C)C(=O)C=C1C(C)(C)CCCC12C` (single isomer, unassigned), the IC50 with SGC-7901, with A549 and with HL-60 was over 100 µM in each case.

In general, IC50 refers to the concentration that gives 50% inhibition. A high value points to weaker potency.
